Assay results: patent US20110275673A1, “INHIBITORS OF SPHINGOSINE KINASE 1” (priority 2008, published 2011)

These compounds were tested against T1, SPHK-1 (Homo sapiens, UniProt Q9NYA1) (assay: Reporter Assay: sphingosine kinase conversion of fluorescein-labeled sphingosine, read on Lab Chip 3000). Settings: 2 μM Fl-sphingosine, 25 μM ATP, 300 ng/ml SK1, 1 hour at room temperature; from percent conversion of substrate to product; read-out: SPHK-1 IC50 (n =).
T1 construct: purchased BPS Bioscience
T1 sequence (Q9NYA1 whole entry): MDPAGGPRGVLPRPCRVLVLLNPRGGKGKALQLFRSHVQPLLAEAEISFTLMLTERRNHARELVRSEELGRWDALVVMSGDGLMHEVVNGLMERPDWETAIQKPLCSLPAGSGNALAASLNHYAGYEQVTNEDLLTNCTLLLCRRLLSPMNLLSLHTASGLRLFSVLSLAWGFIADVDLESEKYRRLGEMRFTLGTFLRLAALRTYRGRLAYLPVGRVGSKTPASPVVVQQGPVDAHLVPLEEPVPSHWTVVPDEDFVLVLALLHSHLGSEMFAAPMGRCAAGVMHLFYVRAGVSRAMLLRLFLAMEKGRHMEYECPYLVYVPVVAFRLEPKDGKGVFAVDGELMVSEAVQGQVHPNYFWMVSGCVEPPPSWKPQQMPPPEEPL
Assay type: biochemical
Experimental: Sphingosine kinase is a 49 kDa enzyme that catalyzes the formation of sphingosine-1-phosphate (S-1-P) from sphingosine.
Fluorescein labeled sphingosine was obtained from Echelon Biosciences (S-100F). Buffer reagents (1 M Hepes, 10 triton x-100, 100% glycerol, dithiothreitol 1 M MgCl2, ATP, 500 mM EDTA and DMSO) were purchased from Sigma. Coating reagent (CR-3), was obtained from Caliper Life Sciences.
0.05% Triton X-100, 2.5% glycerol, 0.1% CR-3, and 0,6% DMSO. Termination butler included 100 mM Hepes (pH 7.5), 40 mM EDTA, 0.05% Triton X-100, 2.5% glycerol, 0.3% CR-3, and 0.6% DMSO.
All assay components were made in reaction buffer. […] The assaylvas allowed to incubate at room temperature sealed and protected from light for 1 hour.
After 1 hour, 10 μl of termination buffer was added to terminate, the reaction, and the plate was read on a Lab Chip 3000. The plate was read for one cycle. The Lab Chip separated substrate and product based on charge.
Results were calculated based on percent conversion of substrate to product using the following formula: […]
Percent inhibition and IC50's for compounds of the invention were determined using the percent conversion values obtained horn the Lab Chip.

For `CCCCCCCCCc1ccc(NC(=O)C(N)CO)cc1` (racemic) [Example 13, (+/−)-2-Amino-3-hydroxy-N-(4-nonylphenyl) propanamide], which IC50 is on record?
The IC50 was 3800 nM.

How did the IC50 turn out when `CCCCCCCCCCc1ccc(NC(=O)[C@H]2NCCC[C@H]2O)cc1` (relative stereo) [Example 45, cis-N-(4-decylphenyl)-3-hydroxy-piperidine-2-carboxamide] was run?
The IC50 was over 10000 nM.

`CCCCCCCCc1ccc(NC(=O)[C@H](N)CO)cc1` [Example 3, (R)-2-Amino-3-hydroxy-N-(4-octylphenyl) propanamide] was tested. Which IC50 did it give?
Its IC50 is 5000 nM.

`CCCCCCCCc1ccc(NC(=O)[C@@H](N)CO)cc1` [Example 4, (S)-2-Amino-3-hydroxy-N-(4-octylphenyl) propanamide] was tested. Which IC50 did it give?
Its IC50 is 4300 nM.

Which IC50 does the source give for `CCCCCCCCCCc1ccc(NC(=O)[C@@H](N)[C@@H](C)O)cc1` [Example 6, (2S,3R)-2-Amino-N-(4-decylphenyl)-3-hydroxy-butanamide] here?
Its IC50 is 46 nM.

For `CCCCCCCCCCCc1ccc(NC(=O)[C@@H](N)[C@@H](C)O)cc1` [Example 7, (2S,3R)-2-Amino-3-hydroxy-N-(4-undecylphenyl) butanamide], which IC50 is on record?
Its IC50 is 110 nM.

`CCCCCCCCCCCCc1ccc(NC(=O)[C@@H](N)[C@@H](C)O)cc1` [Example 8, (2S,3R)-2-Amino-N-(4-dodecylphenyl)-3-hydroxy-butanamide] was tested. Which IC50 did it give?
Its IC50 is 190 nM.

`CCCCCCCCc1ccc(NC[C@H]2NCC[C@@H]2O)cc1` [Example 9, (2R,3S)-2-((4-Octylphenyl-amino)methyl) pyrrolidin-3-ol] was tested. Which IC50 did it give?
Its IC50 is 740 nM.

For `CCCCCCCCc1ccc(NC[C@@H](N)CO)cc1` [Example 10, (R)-2-Amino-3-(4-octylphenyl-amino) propan-1-ol], which IC50 is on record?
Its IC50 is 5000 nM.

With `CCCCCCCCc1cccc(NC(=O)[C@@H](N)[C@@H](C)O)c1` [Example 11, (2S,3R)-2-Amino-3-hydroxy-N-(3-octylphenyl) butanamide] as the compound, how does the IC50 read?
The IC50 was 2900 nM.

For `CCCCCCCOc1ccc(NC(=O)[C@@H](N)[C@@H](C)O)cc1` [Example 12, (2S,3R)-2-Amino-N-(4-(heptyloxy)phenyl)-3-hydroxy-butanamide], which IC50 is on record?
Its IC50 is 1500 nM.

How did the IC50 turn out when `CCCCCCCCCc1ccc(NC(=O)[C@@H](N)[C@@H](C)O)cc1` [Example 14, (2S,3R)-2-Amino-3-hydroxy-N-(4-nonylphenyl) butanamide] was run?
Its IC50 is 180 nM.

Which IC50 does the source give for `CCCCCCOCc1ccc(NC(=O)[C@@H](N)[C@@H](C)O)cc1` [Example 15, (2S,3R)-2-Amino-N-(4-(hexyloxymethyl)phenyl)-3-hydroxy-butanamide] here?
Its IC50 is 8200 nM.

`CC(C)CCCCCCc1ccc(NC(=O)[C@@H](N)[C@@H](C)O)cc1` [Example 16, (2S,3R)-2-Amino-3-hydroxy-N-(4-(7-methyloctyl)phenyl) butanamide] was tested. Which IC50 did it give?
Its IC50 is 150 nM.

For `C[C@@H](O)[C@H](N)C(=O)Nc1ccc(CCCCCCCOc2ccc(F)cc2)cc1` [Example 17, (2S,3R)-2-Amino-N-(4-(7-(4-fluorophenoxy)heptyl)phenyl)-3-hydroxy-butanamide], which IC50 is on record?
Its IC50 is 3600 nM.

Which IC50 does the source give for `CCCCCCCCOc1ccc(NC(=O)[C@@H](N)[C@@H](C)O)cc1` [Example 18, (2S,3R)-2-Amino-3-hydroxy-N-(4-(octyloxy)phenyl) butanamide] here?
The IC50 was 460 nM.

Which IC50 does the source give for `CCCCCCOCc1ccc(NC(=O)[C@H]2NCC[C@@H]2O)cc1` [Example 19, (2S,3S)-N-(4-(Hexyloxy-methyl)phenyl)-3-hydroxy-pyrrolidine-2-carboxamide] here?
The IC50 was 990 nM.

How did the IC50 turn out when `CCCCCCCCc1ccc(NC(=O)[C@H]2NC[C@H](O)[C@@H]2O)cc1` [Example 20, (2S,3R,4S)-3,4-Dihydroxy-N-(4-octylphenyl) pyrrolidine-2-carboxamide] was run?
The IC50 was 8300 nM.

With `CCCCCCCCOCc1ccc(NC(=O)[C@H]2NCC[C@@H]2O)cc1` [Example 21, (2S,3S)-3-Hydroxy-N-(4-(octyloxymethyl)phenyl) pyrrolidine-2-carboxamide] as the compound, how does the IC50 read?
The IC50 was 4.9 nM.

With `C[C@@H](O)[C@H](N)C(=O)Nc1ccc(CCCCCOc2ccc(F)cc2)cc1` [Example 22, (2S,3R)-2-Amino-N-(4-(5-(4-fluorophenoxy)pentyl)phenyl)-3-hydroxy-butanamide] as the compound, how does the IC50 read?
Its IC50 is 3200 nM.

For `O=C(Nc1ccc(CCCOc2ccc(F)cc2)cc1)[C@H]1NCC[C@@H]1O` [Example 23, (2S,3S)-N-(4-(3-(4-Fluorophenoxy)propyl)phenyl)-3-hydroxy-pyrrolidine-2-carboxamide], which IC50 is on record?
Its IC50 is 1500 nM.

`O=C(Nc1ccc(CCCCCOc2ccc(F)cc2)cc1)[C@H]1NCC[C@@H]1O` [Example 24, (2S,3S)-N-(4-(5-(4-Fluorophenoxy)pentyl)phenyl)-3-hydroxy-pyrrolidine-2-carboxamide] was tested. Which IC50 did it give?
Its IC50 is 190 nM.

Which IC50 does the source give for `O=C(Nc1ccc(CCCCCCCOc2ccc(F)cc2)cc1)[C@H]1NCC[C@@H]1O` [Example 25, (2S,3S)-N-(4-(7-(4-Fluorophenoxy)heptyl)phenyl)-3-hydroxy-pyrrolidine-2-carboxamide] here?
Its IC50 is 370 nM.

How did the IC50 turn out when `CCCCCCCCc1ccc(NC(=O)[C@H]2NCC[C@@H]2O)cn1` [Example 26, (2S,3S)-3-Hydroxy-N-(6-octylpyridin-3-yl) pyrrolidine-2-carboxamide] was run?
The IC50 was 3000 nM.

With `CCCCCCCCc1ccc([C@H](C)NC(=O)[C@H]2NCC[C@@H]2O)cc1` [Example 27, (2S,3S)-3-Hydroxy-N-((S)-1-(4-octylphenyl)ethyl) pyrrolidine-2-carboxamide] as the compound, how does the IC50 read?
Its IC50 is 190 nM.

Which IC50 does the source give for `O=C(NCc1ccc(CCCCCOc2ccc(F)cc2)cc1)[C@H]1NCC[C@@H]1O` [Example 28, (2S,3S)-N-(4-(5-(4-Fluorophenoxy)pentyl)benzyl)-3-hydroxy-pyrrolidine-2-carboxamide] here?
The IC50 was 4700 nM.

With `CCCCCCCCc1ccc(NC(=O)[C@@H](N)[C@@H](C)O)cc1` [Example 29, (2S,3R)-2-Amino-3-hydroxy-N-(4-octylphenyl) butanamide] as the compound, how does the IC50 read?
The IC50 was 870 nM.

For `CCCCCCCCc1ccc(NC(=O)[C@H](N)[C@H](C)O)cc1` [Example 30, (2R,3S)-2-Amino-3-hydroxy-N-(4-octylphenyl) butanamide], which IC50 is on record?
The IC50 was 2100 nM.

For `CCCCCCCCc1ccc(NC(=O)[C@H](N)[C@@H](C)O)cc1` [Example 31, (2R,3R)-2-Amino-3-hydroxy-N-(4-octylphenyl) butanamide], which IC50 is on record?
Its IC50 is 1600 nM.

Which IC50 does the source give for `CCCCCCCCc1ccc(NC(=O)[C@@H](N)[C@H](C)O)cc1` [Example 32, (2S,3S)-2-Amino-3-hydroxy-N-(4-octylphenyl) butanamide] here?
Its IC50 is 1100 nM.

For `CCCCC(=O)CCCCCc1ccc(NC(=O)[C@@H](N)[C@@H](C)O)cc1` [Example 33, (2S,3R)-2-amino-3-hydroxy-N-(4-(6-oxodecyl)phenyl) butanamide], which IC50 is on record?
The IC50 was 6100 nM.

For `CCCCCCC(O)CCCc1ccc(NC(=O)[C@@H](N)[C@@H](C)O)cc1` (stereo partly drawn) [Example 35, (2S,3R)-2-amino-3-hydroxy-N-(4-(4-hydroxydecyl)phenyl) butanamide], which IC50 is on record?
Its IC50 is 6900 nM.

For `CCCCCCCCc1ccc(CNC(=O)[C@H]2NCC[C@@H]2O)cc1` [Example 36, (2S,3S)-3-hydroxy-N-(4-octylbenzyl) pyrrolidine-2-carboxamide], which IC50 is on record?
The IC50 was 2100 nM.

How did the IC50 turn out when `CCCCCCCc1ccc(CNC(=O)[C@H]2NCC[C@@H]2O)cc1` [Example 37, (2S,3S)-N-(4-heptylbenzyl)-3-hydroxy-pyrrolidine-2-carboxamide] was run?
The IC50 was 470 nM.

For `CCCCC(=O)CCCCCc1ccc(NC(=O)[C@H]2NCC[C@@H]2O)cc1` [Example 38, (2S,3S)-3-hydroxy-N-(4-(6-oxodecyl)phenyl) pyrrolidine-2-carboxamide], which IC50 is on record?
Its IC50 is 86 nM.

`CCCCCCSCc1ccc(NC(=O)[C@H]2NCC[C@@H]2O)cc1` [Example 39, (2S,3S)-N-(4-(hexylthiomethyl)phenyl)-3-hydroxy-pyrrolidine-2-carboxamide] was tested. Which IC50 did it give?
The IC50 was 110 nM.

With `CCCCCCSCCc1ccc(NC(=O)[C@H]2NCC[C@@H]2O)cc1` [Example 40, (2S,3S)-N-(4-(2-(hexylthio)ethyl)phenyl)-3-hydroxy-pyrrolidine-2-carboxamide] as the compound, how does the IC50 read?
Its IC50 is 7 nM.

`CCCCCCSCCCCc1ccc(NC(=O)[C@H]2NCC[C@@H]2O)cc1` [Example 41, (2S,3S)-N-(4-(4-(hexylthio)butyl)phenyl)-3-hydroxy-pyrrolidine-2-carboxamide] was tested. Which IC50 did it give?
The IC50 was 2 nM.

For `CCCCCCCC(O)CCCc1ccc(NC(=O)[C@H]2NCC[C@@H]2O)cc1` (stereo partly drawn) [Example 42, (2S,3S)-3-hydroxy-N-(4-(4-hydroxy-undecyl)phenyl) pyrrolidine-2-carboxamide], which IC50 is on record?
The IC50 was 120 nM.

For `CCCCCCCSCc1ccc(CNC(=O)[C@H]2NCC[C@@H]2O)cc1` [Example 43, (2S,3S)-N-(4-(heptylthio-methyl)benzyl)-3-hydroxy-pyrrolidine-2-carboxamide], which IC50 is on record?
The IC50 was 180 nM.

For `CCCCCCCCc1ccc(CCNC(=O)[C@H]2NCC[C@@H]2O)cc1` [Example 44, (2S,3S)-3-hydroxy-N-(4-octylphenethyl) pyrrolidine-2-carboxamide], which IC50 is on record?
The IC50 was 6500 nM.

For `CCCCCCS(=O)(=O)Cc1ccc(NC(=O)[C@H]2NCC[C@@H]2O)cc1` [Example 46, (2S,3S)-N-(4-(hexylsulfonyl-methyl)phenyl)-3-hydroxy-pyrrolidine-2-carboxamide], which IC50 is on record?
Its IC50 is over 10000 nM.

Which IC50 does the source give for `CCCCCCCCc1ccc(NC(=O)[C@H]([C@H](C)O)N(CCC)CCC)cc1` [Example 47, (2S,3S)-2-(dipropyl-amino)-3-hydroxy-N-(4-octylphenyl) butanamide] here?
Its IC50 is over 1000 nM.

Which IC50 does the source give for `CCCCCCCCc1ccc(NC(=O)[C@@H](NCC2CCCCC2)[C@H](C)O)cc1` [Example 48, (2S,3S)-2-(cyclohexyl-methyl-amino)-3-hydroxy-N-(4-octylphenyl) butanamide] here?
Its IC50 is over 1000 nM.
